Several values for one entry are separate records, joined by “and”; a condition that tells them apart may be missing. Identical values can stand only once.
Experiments:
hpol η = settings: cited from earlier work
hpol ι = target: T1, hpol ι (Homo sapiens, UniProt Q9UNA4); settings: cited from earlier work
T1 sequence (Q9UNA4 26-446): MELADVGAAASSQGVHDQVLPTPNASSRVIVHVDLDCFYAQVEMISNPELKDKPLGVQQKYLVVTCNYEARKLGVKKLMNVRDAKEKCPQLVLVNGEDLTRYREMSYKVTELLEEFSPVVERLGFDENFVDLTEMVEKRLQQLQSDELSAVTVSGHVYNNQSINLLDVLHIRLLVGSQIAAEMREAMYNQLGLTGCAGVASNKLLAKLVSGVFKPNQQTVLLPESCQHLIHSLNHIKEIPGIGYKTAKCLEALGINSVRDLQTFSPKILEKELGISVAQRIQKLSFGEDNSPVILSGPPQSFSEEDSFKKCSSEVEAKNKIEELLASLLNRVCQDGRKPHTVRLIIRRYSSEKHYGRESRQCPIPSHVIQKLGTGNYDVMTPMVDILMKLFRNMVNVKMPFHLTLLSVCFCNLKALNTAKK

hpol β = settings: cited from earlier work
[1] = target: T2, human DNA polymerase eta (hpol η) (Homo sapiens, UniProt Q9Y253); assay: Fluorescence-based polymerase strand-displacement assay, hpol η; assay type: biochemical; settings: for IC50: read-out: IC50 for inhibition of hpol η, 10 nM hpol η, 50 nM DNA, 0.1 mM dTTP, mean ± standard deviation, triplicate
T2 sequence (Q9Y253 1-437): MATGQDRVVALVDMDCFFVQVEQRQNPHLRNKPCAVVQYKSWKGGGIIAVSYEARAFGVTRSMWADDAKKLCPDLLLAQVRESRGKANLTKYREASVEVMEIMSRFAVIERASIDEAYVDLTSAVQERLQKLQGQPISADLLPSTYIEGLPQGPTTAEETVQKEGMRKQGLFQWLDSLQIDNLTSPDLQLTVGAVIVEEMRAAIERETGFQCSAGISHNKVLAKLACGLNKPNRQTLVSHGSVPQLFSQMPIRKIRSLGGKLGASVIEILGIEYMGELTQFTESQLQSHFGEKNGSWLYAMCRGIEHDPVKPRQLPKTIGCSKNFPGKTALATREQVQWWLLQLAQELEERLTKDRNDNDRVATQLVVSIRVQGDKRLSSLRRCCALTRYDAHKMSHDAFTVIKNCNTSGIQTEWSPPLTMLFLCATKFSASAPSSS

hetero-dimeric hpol γ = target: T3, hetero-dimeric hpol γ (Homo sapiens, UniProt P54098); assay: Fluorescence-based polymerase assay, hpol γ; assay type: biochemical; settings: read-out: IC50 for inhibition of hpol γ; 10 nM hpol γ, 50 nM DNA; mean ± standard deviation
T3 sequence (P54098 1-1239): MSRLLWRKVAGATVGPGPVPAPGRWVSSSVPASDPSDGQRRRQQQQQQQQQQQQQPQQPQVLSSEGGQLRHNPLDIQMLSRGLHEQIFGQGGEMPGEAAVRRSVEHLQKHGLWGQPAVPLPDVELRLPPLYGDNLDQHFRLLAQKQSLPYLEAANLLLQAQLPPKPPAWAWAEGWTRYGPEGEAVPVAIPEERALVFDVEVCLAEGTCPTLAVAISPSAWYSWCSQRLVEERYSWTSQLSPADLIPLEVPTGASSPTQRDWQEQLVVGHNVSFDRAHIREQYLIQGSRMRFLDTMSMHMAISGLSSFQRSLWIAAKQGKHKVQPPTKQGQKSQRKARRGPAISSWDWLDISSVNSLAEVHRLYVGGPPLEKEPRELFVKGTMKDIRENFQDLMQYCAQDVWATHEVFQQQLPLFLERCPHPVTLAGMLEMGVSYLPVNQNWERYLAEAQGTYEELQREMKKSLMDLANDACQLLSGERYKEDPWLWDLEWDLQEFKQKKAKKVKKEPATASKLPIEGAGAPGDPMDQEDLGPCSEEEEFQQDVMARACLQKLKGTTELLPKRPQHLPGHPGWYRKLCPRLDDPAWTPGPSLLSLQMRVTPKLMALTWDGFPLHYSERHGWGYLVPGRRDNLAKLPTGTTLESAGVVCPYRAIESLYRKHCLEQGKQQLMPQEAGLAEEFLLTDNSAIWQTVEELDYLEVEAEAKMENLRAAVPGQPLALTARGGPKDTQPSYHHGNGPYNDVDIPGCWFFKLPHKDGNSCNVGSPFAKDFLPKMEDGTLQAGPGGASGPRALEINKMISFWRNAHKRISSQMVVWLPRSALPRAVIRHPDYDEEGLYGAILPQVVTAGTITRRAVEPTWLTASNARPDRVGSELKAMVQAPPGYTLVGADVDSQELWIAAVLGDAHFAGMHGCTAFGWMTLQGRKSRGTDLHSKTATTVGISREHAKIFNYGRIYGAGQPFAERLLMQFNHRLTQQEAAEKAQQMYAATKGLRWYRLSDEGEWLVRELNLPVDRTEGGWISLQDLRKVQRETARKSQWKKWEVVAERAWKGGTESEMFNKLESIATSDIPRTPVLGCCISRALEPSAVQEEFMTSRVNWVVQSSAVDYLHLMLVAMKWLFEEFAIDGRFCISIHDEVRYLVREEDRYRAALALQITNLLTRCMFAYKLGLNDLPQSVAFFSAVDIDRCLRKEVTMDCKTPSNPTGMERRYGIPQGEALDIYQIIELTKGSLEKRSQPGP
T3 sequence (Q9UHN1 26-485 partner limits assumed): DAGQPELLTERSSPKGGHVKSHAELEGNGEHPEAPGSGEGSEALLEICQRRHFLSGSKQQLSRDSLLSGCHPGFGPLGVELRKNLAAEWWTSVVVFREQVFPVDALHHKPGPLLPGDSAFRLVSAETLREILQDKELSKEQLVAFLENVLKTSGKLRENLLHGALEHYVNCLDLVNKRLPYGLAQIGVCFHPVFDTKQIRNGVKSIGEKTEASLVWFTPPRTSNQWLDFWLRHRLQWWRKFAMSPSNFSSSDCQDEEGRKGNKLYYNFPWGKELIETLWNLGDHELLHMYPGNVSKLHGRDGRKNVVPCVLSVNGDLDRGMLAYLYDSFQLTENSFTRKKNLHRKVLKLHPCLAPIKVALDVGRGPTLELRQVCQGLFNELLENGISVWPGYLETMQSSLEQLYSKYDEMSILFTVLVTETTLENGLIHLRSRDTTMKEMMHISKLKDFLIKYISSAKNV

[2] = target: T4, human Y-family DNA polymerase kappa (hpol κ) (Homo sapiens, UniProt Q9UBT6); assay: Fluorescence-based polymerase assay, hpol κ; assay type: biochemical; settings: read-out: IC50 for inhibition of hpol κ; 3 nM hpol κ, 60 nM DNA; mean ± standard deviation
T4 sequence (Q9UBT6 19-526): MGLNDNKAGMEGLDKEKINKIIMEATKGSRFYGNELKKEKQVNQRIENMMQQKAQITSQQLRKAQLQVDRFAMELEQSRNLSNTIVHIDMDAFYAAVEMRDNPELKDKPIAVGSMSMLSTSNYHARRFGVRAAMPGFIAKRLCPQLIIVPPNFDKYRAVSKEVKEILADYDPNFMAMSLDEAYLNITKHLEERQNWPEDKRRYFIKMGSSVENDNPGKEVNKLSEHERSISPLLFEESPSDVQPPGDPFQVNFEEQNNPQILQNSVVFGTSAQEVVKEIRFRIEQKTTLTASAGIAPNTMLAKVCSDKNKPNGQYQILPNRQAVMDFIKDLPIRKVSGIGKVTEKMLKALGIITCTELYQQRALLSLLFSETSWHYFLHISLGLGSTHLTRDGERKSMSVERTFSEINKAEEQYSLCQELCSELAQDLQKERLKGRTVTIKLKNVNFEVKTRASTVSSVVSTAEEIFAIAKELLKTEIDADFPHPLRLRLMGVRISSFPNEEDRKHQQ

human tumor cell lines = settings: cited from earlier work

| Compound | IC50 for inhibition of hpol η (hpol η) | IC50 for inhibition of hpol ι (hpol ι) | IC50 for inhibition of hpol β (hpol β) | Specificity against hpol β (hpol β) | IC50 [1] | also measured |
| --- | --- | --- | --- | --- | --- | --- |
| O=C(O)C1=CC(=C(c2ccc(O)c(C(=O)O)c2)c2ccc(O)c(C(=O)O)c2)C=CC1=O [aurintricarboxylic acid] | sub-micromolar | sub-micromolar | sub-micromolar | greater than 2 fold |  |  |
| O=C1NC(=S)NC(=O)C1=Cc1cn(C(=O)c2ccc3ccccc3c2)c2ccccc12 [ITBA-18] |  |  |  |  | 67.8 ± 3.3 µM | Inhibition of hpol η activity (percent activity relative to control), in words ([1]; 50 μM compound, relative to DMSO control (Figure 4C)): roughly equal activity against hpol η |
| O=C1NC(=S)NC(=O)C1=Cc1cn(C(=O)c2cccc3ccccc23)c2ccc(Cl)cc12 [ITBA-16] |  |  |  |  | 16 µM and 15.8 µM | Fold by which IC50 for hpol η is lower than any of the other pols tested ([1]; hpol η versus seven other polymerases): over 2 fold; IC50 (hetero-dimeric hpol γ): 35.3 ± 2.9 µM; IC50 [2]: 32.9 ± 3.2 µM |
| CC(C)c1ccc2c(c1)c(SC(C)(C)C)c(CC(C)(C)C(=O)O)n2Cc1ccc(Cl)cc1 [MK886] |  |  |  |  |  | IC50 (hpol η; read-out: IC50 for inhibition of hpol η): ~46 µM; Inhibition of hpol ι relative to other Y-family pols (hpol ι; hpol ι versus other Y-family pols): five- to eight-times more effectively; IC50 (hpol ι; read-out: IC50 for inhibition of hpol ι): 9 µM |
| O=C1NC(=S)NC(=O)C1=Cc1cn(C(=O)c2cccc3ccccc23)c2ccc(Cl)cc12 [ITBA-17] |  |  |  |  |  | Anti-proliferative and cytotoxic properties (human tumor cell lines): potent anti-proliferative and cytotoxic properties |
| O=c1oc2c(O)c(O)cc3c(=O)oc4c(O)c(O)cc1c4c23 [ellagic acid] | sub-micromolar | sub-micromolar | sub-micromolar | greater than 2 fold |  |  |

Reference: PMC3746001 (ACS chemical biology, 2013)
